Laboratory results reported in US9221795B2, “Phosphatidylinositol 3-kinase inhibitors” (Gilead Sciences, Inc., priority 2013, dated 2015).

Columns and labels:
[1] = tested on: basophils; test: Basophil activation in human whole blood (Flow2 CAST kit, CD63 flow cytometry); format: cell-based
Procedure: Effect on basophil activation was measured in human whole blood using the Flow2 CAST® kit (Buhlmann Laboratories AG, Baselstrasse, Switzerland) following the protocol provided by the manufacturer with minor modifications. Human whole blood was collected into K2-EDTA venipuncture tubes. Whole blood samples were treated with either DMSO (0.3% final) or a serial dilution of compounds in DMSO for 60 minutes at 37° C. Basophils were then activated either with anti-FcεRI mAb or with fMLP. To activate basophils using the anti-FcεRI mAb; 50 μL of whole blood was mixed with 110 μL of stimulation buffer (B-BAT-STB) and 20 μl of anti-FcεRI (B-BAT-STCON). To activate basophils with fMLP; 50 μL of whole blood was mixed with 80 μL of stimulation buffer (B-BAT-STB) and 50 μL of fMLP (B-CCR-FMLP). Stimulation buffer was used as a negative control. 20 μL of the staining reagent (combination of anti-human CD63-FITC and anti-human CCR3-PE mAbs) was then added to each tube. The tubes were mixed gently and incubated for 25 minutes at 37° C. Subsequently, erythrocytes were lysed and fixed by the addition of 2 mL of lysing solution (B-BAT-LYR) for 10 minutes at room temperature. Cells were pelleted by centrifugation at 1200 rpm for 10 minutes at room temperature in a swing-out rotor. Supernatant was aspirated and cell pellet resuspended in 400 μL of wash buffer. Flow cytometric analysis of the basophil activation was performed on a FC500MPL flow cytometer (Beckman Coulter Inc., Fullerton, Calif.). CCR3-staining and side scatter were applied to gate at least 200 basophils that expressed a high density of CCR3. The percent CD63 positive cells within the gated basophil population were determined in different treatment groups and normalized to the vehicle control (0.3% DMSO) with anti-FcεRI mAb of fMLP stimulus as 100%. Final compound concentration was adjusted to correct for dilution effect of added reagents. The EC50 values were calculated from the analysis of the dose-response curves to a four-parameter equation.

[2] = Hepatocyte stability (parent drug disappearance in cryopreserved hepatocytes); format: in vitro ADME, human; details: human, human hepatocytes
Procedure: This assay was used to evaluate the metabolic stability of test articles (TA) following incubation in cryopreserved hepatocytes by monitoring parent drug disappearance via LC/MC. The TA was incubated with 1 million hepatocytes/mL at 2 μM substrate in duplicate. The incubation was carried out at 37° C. with 5% CO2 and saturating humidity. Samples were taken at 0, 1, 2, and 4 hours to monitor the disappearance of TA and a half-life (t1/2) was determined. Table 3 below summarizes the human hepatocyte t1/2 values (hours) collected in the Example.

[3] = target: PI3Kδ (Homo sapiens (Human), UniProt O00329); test: Enzymatic activity of PI3K isoforms, TR-FRET assay (PI3Kδ); format: biochemical; details: 2× Km ATP, geometric mean if more than one value
Chain of PI3Kδ (O00329 whole entry, the tested form may be a part, canonical isoform): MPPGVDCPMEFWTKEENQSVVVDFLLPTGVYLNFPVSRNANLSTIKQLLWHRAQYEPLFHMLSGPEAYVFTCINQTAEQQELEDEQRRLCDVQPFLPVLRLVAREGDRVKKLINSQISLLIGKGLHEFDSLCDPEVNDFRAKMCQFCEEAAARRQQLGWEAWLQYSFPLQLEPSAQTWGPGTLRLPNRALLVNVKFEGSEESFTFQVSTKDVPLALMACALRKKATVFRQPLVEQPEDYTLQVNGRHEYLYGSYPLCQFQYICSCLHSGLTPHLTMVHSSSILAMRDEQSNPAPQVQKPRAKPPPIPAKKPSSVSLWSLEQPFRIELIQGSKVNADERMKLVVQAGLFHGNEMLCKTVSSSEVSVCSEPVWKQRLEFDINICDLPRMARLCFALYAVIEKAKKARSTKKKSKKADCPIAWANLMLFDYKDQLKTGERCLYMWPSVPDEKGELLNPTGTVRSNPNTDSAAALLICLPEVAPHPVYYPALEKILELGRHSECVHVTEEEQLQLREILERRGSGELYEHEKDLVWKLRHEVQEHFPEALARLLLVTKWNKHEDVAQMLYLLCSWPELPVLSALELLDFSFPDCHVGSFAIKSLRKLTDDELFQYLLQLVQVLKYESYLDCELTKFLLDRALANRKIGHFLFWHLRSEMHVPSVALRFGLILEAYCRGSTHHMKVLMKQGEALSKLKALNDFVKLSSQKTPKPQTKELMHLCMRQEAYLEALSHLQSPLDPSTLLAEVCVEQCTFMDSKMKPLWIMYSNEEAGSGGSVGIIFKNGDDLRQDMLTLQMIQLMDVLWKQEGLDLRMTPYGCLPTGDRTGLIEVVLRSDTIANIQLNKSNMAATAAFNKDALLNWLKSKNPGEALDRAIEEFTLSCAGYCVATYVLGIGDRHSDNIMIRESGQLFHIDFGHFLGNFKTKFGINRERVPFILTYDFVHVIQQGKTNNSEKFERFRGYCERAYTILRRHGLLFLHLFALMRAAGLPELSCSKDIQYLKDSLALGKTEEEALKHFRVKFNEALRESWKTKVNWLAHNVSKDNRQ
Chain of PI3Kδ (P27986 whole entry partner, the tested form may be a part, canonical isoform): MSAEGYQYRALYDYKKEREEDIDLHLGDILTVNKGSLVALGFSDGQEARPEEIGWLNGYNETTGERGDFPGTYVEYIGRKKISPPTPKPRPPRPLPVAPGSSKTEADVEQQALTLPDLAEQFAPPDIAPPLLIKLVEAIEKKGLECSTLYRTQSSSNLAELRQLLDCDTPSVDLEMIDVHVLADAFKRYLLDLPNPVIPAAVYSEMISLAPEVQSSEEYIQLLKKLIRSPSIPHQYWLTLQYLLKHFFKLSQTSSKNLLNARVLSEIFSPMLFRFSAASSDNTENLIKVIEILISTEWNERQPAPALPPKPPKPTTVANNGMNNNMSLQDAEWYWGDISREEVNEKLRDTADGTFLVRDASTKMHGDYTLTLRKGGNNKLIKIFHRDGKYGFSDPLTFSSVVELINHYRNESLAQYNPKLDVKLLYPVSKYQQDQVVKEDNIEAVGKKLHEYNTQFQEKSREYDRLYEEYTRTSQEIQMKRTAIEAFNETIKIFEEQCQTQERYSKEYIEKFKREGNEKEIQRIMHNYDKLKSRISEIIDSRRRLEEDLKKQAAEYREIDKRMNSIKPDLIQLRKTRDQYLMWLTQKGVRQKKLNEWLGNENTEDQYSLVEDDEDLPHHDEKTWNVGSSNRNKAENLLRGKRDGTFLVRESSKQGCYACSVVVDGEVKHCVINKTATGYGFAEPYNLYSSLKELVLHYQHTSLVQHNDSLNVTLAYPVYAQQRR
Procedure: Enzymatic activity of the class I PI3K isoforms in the presence of the compounds of Table 1 and Compounds X, Y and Z was measured using a time-resolved fluorescence resonance energy transfer (TR-FRET) assay. The TR-FRET assay was used to monitor formation of the product 3,4,5-inositol triphosphate molecule (PIP3) as it competed with fluorescently labeled PIP3 for binding to the GRP-1 pleckstrin homology domain protein. An increase in […] product results in a decrease in TR-FRET signal as the labeled fluorophore is displaced from the GRP-1 protein binding site.
Class I PI3K isoforms were expressed and purified as heterodimeric recombinant proteins. All assay reagents and buffers for the TR-FRET assay were purchased from Millipore. PI3K isoforms were assayed under initial rate conditions in the presence of 25 mM Hepes (pH 7.4), and 2× Km ATP (75-500 μM), 2 μM PIP2, 5% glycerol, 5 mM MgCl2, 50 mM NaCl, 0.05% (v/v) Chaps, 1 mM dithiothreitol, 1% (v/v) DMSO at the following concentrations for each isoforms: PI3Kα, PI3Kβ, and PI3Kδ between 25 and 50 pM, and PI3Kγ at 2 nM. After an assay reaction time of 30 minutes at 25° C., reactions were terminated with a final concentration of 10 mM EDTA, 10 nM labeled-PIP3, and 35 nM Europium labeled GRP-1 detector protein before reading TR-FRET on an Envision plate reader (Ex: 340 nm; Em: 615/665 nm; […] delay and 500 μs read window).
Data were normalized based on positive ([…] wortmanin) and negative (DMSO) controls. α, β, δ, and γ IC50 values were calculated from the fit of the dose-response curves to a four-parameter equation. All IC50 values represent geometric mean values if more than one value was obtained. IC50 values were reported in units of nM.

[4] = class symbol, human whole blood, basophils activated with anti-FcεRI mAb or fMLP, percent CD63 positive cells
[5] = human whole blood, basophils activated with anti-FcεRI mAb or fMLP, percent CD63 positive cells, geometric mean
[6] = cryopreserved human hepatocytes, class symbol, 2 μM substrate, 37° C.
[7] = cryopreserved human hepatocytes, 2 μM substrate, 37° C., Table 3
[8] = Homo sapiens, basophil activation in human whole blood, comparison Table 4
[9] = cryopreserved hepatocytes, comparison Table 4
[10] = Homo sapiens, class symbol, human whole blood, basophils activated with anti-FcεRI mAb or fMLP, percent CD63 positive cells
[11] = Homo sapiens, human whole blood, basophils activated with anti-FcεRI mAb or fMLP, percent CD63 positive cells, geometric mean

SMILES	IC50 [3] [nM]	EC50 [1, 10] [nM]	EC50 [1, 11] [nM]	further results
Cc1ncccc1-n1c([C@H](C)Nc2nc(N)nc(N)c2C#N)nc2cccc(Cl)c2c1=O (atropisomer, axis not shown) [Compound 39, (S)-2,4-diamino-6-(1-(5-chloro-3-(2-methylpyridin-3-yl)-4-oxo-3,4-dihydroquinazolin-2-yl)ethylamino)pyrimidine-5-carbonitrile]	1			EC50 [1, 4]: 1 to 10 nM; EC50 [1, 5]: 2 nM; half-life at 2 μM [2, 6]: 3 to 6 h; half-life at 2 μM [2, 7]: 3 h
C[C@H](Nc1ncnc2[nH]cnc12)c1nc2cccc(Cl)c2c(=O)n1-c1ccccc1 [Compound X, reference compound]				EC50 [1, 8]: > 5 nM; half-life at 2 μM [2, 9]: < 2 h
C[C@H](Nc1ncnc(N)c1C#N)c1nc2cccc(Cl)c2c(=O)n1-c1ccccc1 [Compound Y, reference compound]				EC50 [1, 8]: > 10 nM; half-life at 2 μM [2, 9]: < 2 h
CC[C@H](Nc1nc(N)nc(N)c1C#N)c1nc2cccc(Cl)c2c(=O)n1-c1cccnc1 [Compound 2, (S)-2,4-diamino-6-(1-(5-chloro-4-oxo-3-(pyridin-3-yl)-3,4-dihydroquinazolin-2-yl)propylamino)pyrimidine-5-carbonitrile]	2	1 to 10	2	half-life at 2 μM [2, 6]: > 10 h; half-life at 2 μM [2, 7]: > 10 h
C[C@H](Nc1nc(N)nc(N)c1C#N)c1nc2cccc(Cl)c2c(=O)n1-c1ccccc1 [Compound Z, reference compound]				EC50 ([1]; basophil activation in human whole blood, comparison Table 4): < 1 nM; half-life at 2 μM [2, 9]: < 5 h
Cc1c(F)cncc1-n1c([C@H](C)Nc2nc(N)nc(N)c2C#N)nc2cccc(Cl)c2c1=O (atropisomer, axis not shown) [Compound 46, (S)-2,4-diamino-6-(1-(5-chloro-3-(5-fluoro-4-methylpyridin-3-yl)-4-oxo-3,4-dihydroquinazolin-2-yl)ethylamino)pyrimidine-5-carbonitrile]	38			half-life at 2 μM [2, 6]: 6 to 10 h; half-life at 2 μM [2, 7]: 8 h
Cc1cncc(-n2c([C@@H](Nc3nc(N)nc(N)c3C#N)C3CC3)nc3cccc(Cl)c3c2=O)c1 [Compound 17, (S)-2,4-diamino-6-((5-chloro-3-(5-methylpyridin-3-yl)-4-oxo-3,4-dihydroquinazolin-2-yl)(cyclopropyl)methylamino)pyrimidine-5-carbonitrile]	4	1 to 10	5	
Cc1cncc(-n2c([C@H](C)Nc3nc(N)nc(N)c3C#N)nc3cccc(Cl)c3c2=O)c1 [Compound 16, (S)-2,4-diamino-6-(1-(5-chloro-3-(5-methylpyridin-3-yl)-4-oxo-3,4-dihydroquinazolin-2-yl)ethylamino)pyrimidine-5-carbonitrile]	1	< 1	0.7	
Cc1ccncc1-n1c([C@H](C)Nc2nc(N)nc(N)c2C#N)nc2ccc(F)c(Cl)c2c1=O (atropisomer, axis not shown) [Compound 42, (S)-2,4-diamino-6-(1-(5-chloro-6-fluoro-3-(4-methylpyridin-3-yl)-4-oxo-3,4-dihydroquinazolin-2-yl)ethylamino)pyrimidine-5-carbonitrile]	27	1 to 10		EC50 [1, 5]: 8 nM
Cc1ccncc1-n1c([C@H](C)Nc2nc(N)nc(N)c2C#N)nc2ccc(F)c(Cl)c2c1=O (atropisomer, axis not shown) [Compound 43, (S)-2,4-diamino-6-(1-(5-chloro-6-fluoro-3-(4-methylpyridin-3-yl)-4-oxo-3,4-dihydroquinazolin-2-yl)ethylamino)pyrimidine-5-carbonitrile]	4			EC50 [1, 4]: 1 to 10 nM; EC50 [1, 5]: 2 nM
C[C@H](Nc1nc(N)nc(N)c1C#N)c1nc2ccc(F)c(Cl)c2c(=O)n1-c1cccnc1 [Compound 36, (S)-2,4-diamino-6-(1-(5-chloro-6-fluoro-4-oxo-3-(pyridin-3-yl)-3,4-dihydroquinazolin-2-yl)ethylamino)pyrimidine-5-carbonitrile]	4	1 to 10	2	
C[C@H](Nc1nc(N)nc(N)c1C#N)c1nc2cccc(Cl)c2c(=O)n1-c1cncc(Cl)c1 [Compound 13, (S)-2,4-diamino-6-(1-(5-chloro-3-(5-chloropyridin-3-yl)-4-oxo-3,4-dihydroquinazolin-2-yl)ethylamino)pyrimidine-5-carbonitrile]	8	1 to 10	4	
C[C@H](Nc1nc(N)nc(N)c1C#N)c1nc2c(F)ccc(F)c2c(=O)n1-c1cccnc1 [Compound 25, (S)-2,4-diamino-6-(1-(5,8-difluoro-4-oxo-3-(pyridin-3-yl)-3,4-dihydroquinazolin-2-yl)ethylamino)pyrimidine-5-carbonitrile]	8	10 to 50	11	
C[C@H](Nc1nc(N)nc(N)c1C#N)c1nc2c(F)ccc(C#N)c2c(=O)n1-c1cccnc1 [Compound 34, (S)-2-(1-((2,6-diamino-5-cyanopyrimidin-4-yl)amino)ethyl)-8-fluoro-4-oxo-3-(pyridin-3-yl)-3,4-dihydroquinazoline-5-carbonitrile]	21	10 to 50	22	
Cc1ccncc1-n1c([C@H](C)Nc2nc(N)nc(N)c2C#N)nc2cccc(Cl)c2c1=O (atropisomer, axis not shown) [Compound 40, (S)-2,4-diamino-6-(1-(5-chloro-3-(4-methylpyridin-3-yl)-4-oxo-3,4-dihydroquinazolin-2-yl)ethylamino)pyrimidine-5-carbonitrile]	9	1 to 10	7	
C[C@H](Nc1nc(N)nc(N)c1C#N)c1nc2cccc(S(C)(=O)=O)c2c(=O)n1-c1cccnc1 [Compound 8, (S)-2,4-diamino-6-(1-(5-(methylsulfonyl)-4-oxo-3-(pyridin-3-yl)-3,4-dihydroquinazolin-2-yl)ethylamino)pyrimidine-5-carbonitrile]	9	> 50	100	
Cc1ncccc1-n1c([C@H](C)Nc2nc(N)nc(N)c2C#N)nc2cccc(Cl)c2c1=O (atropisomer, axis not shown) [Compound 38, (S)-2,4-diamino-6-(1-(5-chloro-3-(2-methylpyridin-3-yl)-4-oxo-3,4-dihydroquinazolin-2-yl)ethylamino)pyrimidine-5-carbonitrile]	13	1 to 10		EC50 [1, 5]: 9 nM
CC[C@H](Nc1nc(N)nc(N)c1C#N)c1nc2c(F)ccc(C#N)c2c(=O)n1-c1cccnc1 [Compound 35, (S)-2-(1-((2,6-diamino-5-cyanopyrimidin-4-yl)amino)propyl)-8-fluoro-4-oxo-3-(pyridin-3-yl)-3,4-dihydroquinazoline-5-carbonitrile]	35	> 50	62	
